Measurements reported in patent US10799501B2, “Combination of an inhibitor of PARP with an inhibitor of GSK-3 or DOT1L” (King's College London, priority 2015, dated 2020).

Legend:
[1] = system: MLL-AF9 leukemic cells (Hoxa9−/− background); test: C57Bl/6 mice transplanted with Hoxa9−/− MLL-AF9 leukemic cells, Olaparib treatment; assay type: in vivo, mouse; conditions: Olaparib 50 mg/kg daily
Procedure: For Hoxa9 KO studies, we intravenously injected […] MLL-AF9 leukemic cells (wild type or Hoxa9−/− background) together with 2×10^5 bone marrow rescue cells into lethally irradiated C57Bl/6 mice (2 doses of irradiation 550 RADS each) for disease development. For drug studies, the control cohort received vehicle (10% 2-Hydroxpropyl-beta-cyclodextrin, HBC, Sigma-Aldrich) and the PARPi treatment group received daily Olaparib 50 mg/kg in 10% HBC for two-four weeks.

NB4-LR2 (PML-RARα) = test: Humanized xenograft: NSG mice transplanted with NB4-LR2 cells, Olaparib treatment; assay type: in vivo, mouse
Procedure: (§1) We established humanized models of AML1-ETO and PML-RARα leukemia in sub-lethally irradiated NOD/SCID/IL2Rg−/−(NSG, 1 dose 200 RADs) by transplanting 2×10^6 Kasumi (intra-femoral, IF) and 1×10^5 NB4-LR2 or 1×10^5 THP1 (intravenous, IV) cells. The day after the transplantation, mice were split into two groups and given intra-peritoneal injections of vehicle (10% HBC) or Olaparib (25 mg/kg in 10% HBC) daily for 2-4 weeks. The maximum tolerable dose was calculated by in vivo dose-response experiments. Mice were monitored daily until they developed symptoms of leukemia, when they were culled and bone marrow, spleen and liver harvested and analyzed by FACS. The engraftment of human donor cells was defined as human CD45/CD33 double positive by FACS.

[2] = system: PML-RARα primary human leukemia cells; test: In vitro treatment of primary AML patient cells carrying PML-RARα (APL); assay type: cell-based
Procedure: NB4-LR2 and THP1 cell lines (kindly provided by Dr Arthur Zelent and Professor Mel Greaves respectively) were cultured in RPMI (Invitrogen) supplemented with 10% selected FBS (R10), 2 mM L-Glutamine. Kasumi cell line (kindly provided by Dr Olaf Heidenreich) was cultured in RPMI-Hepes modified (Sigma) supplemented with 20% selected FBS and 2 mM L-[…]). Cell lines were validated by qPCR for their respective oncogenes. NIH3T3 and GP2 cell line was cultured in DMEM (Invitrogen) supplemented with 10% selected FBS and 2 mM L-Glutamine. Human primary AML cells were cultured in IMEM (Invitrogen) supplemented with […], 2 mM L-Glutamine, 10 ng/mL each of human cytokines, IL3, IL6, SCF, FLT3 ligand, and TPO. Cells were kept at 37° C. and 5% CO2. Use of human primary cells was approved by King's College London committee and consents of the patients were obtained. […] Colonies were scored 6-7 days after plating. […] Cells were counted in at least 5 fields for each slide, for a total of over 100 cells per condition. […] Cells were then washed in PBS and the differentiated cells were indicated by the deposition of dark blue insoluble formazan (NBT positive cells) and the percentage of differentiated cells were counted under microscopy. At least 200 cells were counted in most of the cases.

THP1 (MLL-AF9) = test: Humanized xenograft: NSG mice transplanted with THP1 cells, Olaparib treatment; assay type: in vivo, mouse
Procedure: as §1

[3] = C57Bl6 mice succumbed with MLL-AF9-Hoxa9 KO driven leukemia
[4] = NSG mice succumbed with NB4-LR2 driven disease, Olaparib 25 mg/kg i.p. daily
[5] = NSG mice succumbed with THP1 driven disease, Olaparib 25 mg/kg i.p. daily

## O=C(c1cc(Cc2n[nH]c(=O)c3ccccc23)ccc1F)N1CCN(C(=O)C2CC2)CC1 [Olaparib, 4-[(3-[(4-cyclopropylcarbonyl)piperazin-4-yl]carbonyl)-4-fluorophenyl]methyl(2H)-phthalazin-1-one]
[1]; [3]
  BM Engraftment (%): 82.06 ± 18.95%
  Disease Latency (days; median): 67 days
  Hematopoietic Liver Engraftment (%): 62.18 ± 38.26%
  Hematopoietic Spleen Engraftment (%): 65.4 ± 33.45%
  Liver: 1.696 ± 0.1262 g
  Spleen: 0.4337 ± 0.1559 g
[1]; Hoxa9 deficient MLL-AF9 leukemic cells
  disease latency: significantly delayed the disease latency
NB4-LR2 (PML-RARα); [4]
  BM Engraftment (%): 40.27 ± 23.73%
  Disease Latency (days; median): 51 days
  Hematopoietic Liver Engraftment (%): 58.99 ± 27.07%
  Hematopoietic Spleen Engraftment (%): 33.39 ± 25.3%
  Liver: 2.415 ± 1.844 g
  Spleen: 0.5226 ± 0.5279 g
NB4-LR2 (PML-RARα); single agent, NB4-LR2 xenograft
  disease onset induced by ATRA-resistant APL cells: effectively suppress disease onset
[2]; 1 μM Olaparib for 5 days
  differentiation of primary AML cells: increased differentiation
[2]; primary patient cells treated 5 days
  in vitro PARPi response (sensitivity): highly sensitive
THP1 (MLL-AF9); [5]
  BM Engraftment (%): 30.7 ± 33.27%
  Disease Latency (days; median): 81 days
  Hematopoietic Liver Engraftment (%): 27.81 ± 31.79%
  Hematopoietic Spleen Engraftment (%): 8.53 ± 6.946%
  Liver: 1.31 ± 0.153 g
  Spleen: 0.0822 ± 0.0301 g
THP1 (MLL-AF9); THP1 cells carrying MLL-AF9
  survival of xenograft model transplanted with human THP1 cells: no effect on the survival
